Source: patent US9878977B2, “N-((3,4,5-trimethoxystyryl)aryl)cinnamamide compounds as potential anticancer agents and process for the preparation thereof” (COUNCIL OF SCIENTIFIC & INDUSTRIAL RESEARCH, priority 2014, dated 2018)
Like-named read-outs stand apart in the source and are kept apart here.

Assays:
Type in all cases: cell-based, Human
MCF-7 = assay: SRB anti-proliferative assay, MCF-7
Protocol: (§1) The synthesized N-(3,4,5-trimethoxystyryl)aryl)cinnamamides were evaluated for their anti-proliferative activity in selected human cancer cell lines of breast cancer (MCF-7), prostate cancer (DU-145), lung cancer (Hop-62), cervical cancer (Hela), leukemia (K562), ovarian cancer (SK-OV-3), colon cancer (Colo-205), pancreatic (MAIPA-CA-2) by using sulforhodamine B (SRB) method (Vichai, V.; Kirtikara, K. Nat. Protoc. 2006, 1, 1112). […] CA-4 was used as the reference compound.

DU-145 = assay: SRB anti-proliferative assay, DU-145
Protocol: as §1

Hop-62 = assay: SRB anti-proliferative assay, Hop-62
Protocol: as §1

Hela = assay: SRB anti-proliferative assay, Hela; conditions: read-out: GI50 Hela
Protocol: as §1

K562 = assay: SRB anti-proliferative assay, K562
Protocol: as §1

SK-OV-3 = assay: SRB anti-proliferative assay, SK-OV-3
Protocol: as §1

Colo-205 = assay: SRB anti-proliferative assay, Colo-205
Protocol: as §1

MAIPA-CA-2 = assay: SRB anti-proliferative assay, MAIPA-CA-2; conditions: read-out: GI50 MAIPA-CA-2
Protocol: as §1

[1] = Homo sapiens, MCF7, read-out: GI50 MCF-7
[2] = Homo sapiens, DU-145, read-out: GI50 DU-145
[3] = Homo sapiens, HOP-62, read-out: GI50 Hop-62
[4] = Homo sapiens, K562, read-out: GI50 K562
[5] = Homo sapiens, SK-OV-3, read-out: GI50 SK-OV-3
[6] = Homo sapiens, COLO 205, read-out: GI50 Colo-205
[7] = MCF7, Human breast cancer, concentration of drug causing 50% inhibition of cell growth, read-out: GI50 MCF-7
[8] = DU-145, Human prostate cancer, concentration of drug causing 50% inhibition of cell growth, read-out: GI50 DU-145
[9] = HOP-62, Human lung cancer, concentration of drug causing 50% inhibition of cell growth, read-out: GI50 Hop-62
[10] = Human cervical cancer, concentration of drug causing 50% inhibition of cell growth
[11] = K562, Human leukemia, concentration of drug causing 50% inhibition of cell growth, read-out: GI50 K562
[12] = SK-OV-3, Human ovarian cancer, concentration of drug causing 50% inhibition of cell growth, read-out: GI50 SK-OV-3
[13] = COLO 205, Human colon cancer, concentration of drug causing 50% inhibition of cell growth, read-out: GI50 Colo-205
[14] = Human pancreatic, concentration of drug causing 50% inhibition of cell growth

Row | GI50 (MCF-7; [7]) [µM] | GI50 (DU-145; [8]) [µM] | GI50 (Hela; [10]) [µM] | GI50 (K562; [11]) [µM] | GI50 (SK-OV-3; [12]) [µM] | GI50 (Colo-205; [13]) [µM] | Structure (SMILES) | GI50 (MCF-7; [1]) [µM] | GI50 (DU-145; [2]) [µM] | GI50 (Hop-62; [3]) [µM] | GI50 (Hela; Homo sapiens) [µM] | GI50 (K562; [4]) [µM] | GI50 (SK-OV-3; [5]) [µM] | GI50 (Colo-205; [6]) [µM] | GI50 (MAIPA-CA-2; Homo sapiens) [µM] | GI50 (Hop-62; [9]) [µM] | GI50 (MAIPA-CA-2; [14]) [µM]
1 | – | – | – | – | – | – | COc1ccc(C=Cc2cc(OC)c(OC)c(OC)c2)c(NC(=O)/C=C/c2ccc(F)c(F)c2)c1O [Compound 20aa, (E)-3-(3,4-Difluorophenyl)-N-(2-hydroxy-3-methoxy-6-(3,4,5-trimethoxystyryl)phenyl)acrylamide] | 0.031 | 0.045 | 43.6 | 29.2 | 0.099 | 29.8 | 74.9 | 74 | – | –
2 | – | – | – | – | – | – | COc1ccc(C=Cc2cc(OC)c(OC)c(OC)c2)c(NC(=O)/C=C/c2cc(OC)c(OC)c(OC)c2)c1O [Compound 20ab, (E)-N-(2-Hydroxy-3-methoxy-6-(3,4,5-trimethoxystyryl)phenyl)-3-(3,4,5-trimethoxyphenyl)acrylamide] | 0.079 | 0.095 | 24.8 | 14.9 | 28 | 20.9 | 76 | 64.5 | – | –
3 | 59.5 | > 100 | 18.1 | 0.098 | 17.6 | > 100 | COc1cccc(/C=C/C(=O)Nc2c(C=Cc3cc(OC)c(OC)c(OC)c3)ccc(OC)c2O)c1 [Compound 20f, (E)-N-(2-Hydroxy-3-methoxy-6-(3,4,5-trimethoxystyryl)phenyl)-3-(3-methoxyphenyl)acrylamide] | – | – | – | – | – | – | – | – | 65.4 | 93.9
4 | – | – | – | – | – | – | COc1ccc(C=Cc2cc(OC)c(OC)c(OC)c2)c(NC(=O)/C=C/c2cccc(O)c2)c1O [Compound 20g, (E)-N-(2-Hydroxy-3-methoxy-6-(3,4,5-trimethoxystyryl)phenyl)-3-(3-hydroxyphenyl)acrylamide] | 0.063 | 0.07 | 0.082 | 0.0949 | 0.094 | 0.097 | 13.4 | 0.098 | – | –
5 | – | – | – | – | – | – | C#CCOc1cccc(/C=C/C(=O)Nc2c(C=Cc3cc(OC)c(OC)c(OC)c3)ccc(OC)c2O)c1 [Compound 20h, (E)-N-(2-Hydroxy-3-methoxy-6-(3,4,5-trimethoxystyryl)phenyl)-3-(3-(prop-2-ynyloxy)phenyl)acrylamide] | 11.6 | 96.4 | > 100 | > 100 | > 100 | > 100 | > 100 | > 100 | – | –
6 | 0.083 | 0.085 | 0.0787 | 0.091 | 0.082 | 18 | C=CCOc1cccc(/C=C/C(=O)Nc2c(C=Cc3cc(OC)c(OC)c(OC)c3)ccc(OC)c2O)c1 [Compound 20i, (E)-3-(3-(Allyloxy)phenyl)-N-(2-hydroxy-3-methoxy-6-(3,4,5-trimethoxystyryl)phenyl)acrylamide] | – | – | – | – | – | – | – | – | 0.06 | 0.098
7 | – | – | – | – | – | – | COc1ccc(C=Cc2cc(OC)c(OC)c(OC)c2)c(NC(=O)/C=C/c2ccc(C(F)(F)F)cc2)c1O [Compound 20n, (E)-N-(2-Hydroxy-3-methoxy-6-(3,4,5-trimethoxystyryl)phenyl)-3-(4-(trifluoromethyl)phenyl)acrylamide] | 83.7 | > 100 | > 100 | > 100 | 58 | > 100 | > 100 | > 100 | – | –
8 | – | – | – | – | – | – | COc1ccc(C=Cc2cc(OC)c(OC)c(OC)c2)c(NC(=O)/C=C/c2ccc([N+](=O)[O-])cc2)c1O [Compound 20o, (E)-N-(2-Hydroxy-3-methoxy-6-(3,4,5-trimethoxystyryl)phenyl)-3-(4-nitrophenyl)acrylamide] | 0.072 | 0.085 | 0.061 | 15.7 | 0.097 | 17 | 10.3 | 40.8 | – | –
